Key:
BRD4(1) bromodomain = BRD4(1) bromodomain (Homo sapiens, UniProt O60885); conditions: HEK293 cells, n=2
Source text: 2. […] 3. […] 4. Count cells. 5. […] 6. […] 7. […] 8. […] 9.

c-Myc expression = conditions: Ciceri et al., Nat Chem Biol. 2014; read-out: Published cell potency for reducing c-Myc expression: IC50; cited from earlier work
BRD4(1) = BRD4(1) (Homo sapiens, UniProt O60885); conditions: 0-100 micromolar; 1 hour at room temperature; 45° C. for 30s
Method: To carry out the assay, a fusion protein [BRD4(1)-ED], which also contains an NFκB DNA binding domain at the N-terminus, was constructed with BRD4(1) and a ProLabel™ enzyme donor (ED) fragment. […] The incubation was for 1 hour at room temperature. The samples were then heated to 45° C. for 30s. EA was subsequently added into the samples (along with luminescent substrate for beta-galactosidase) and complementation was measured by measuring luminescence.
To carry out the assays, two separate samples were prepared wherein one sample comprises BRD4(1)(fusion) and no inhibitor whereas another sample comprises BRD4(1)(fusion) and an inhibitor. […] Following incubation, samples were exposed to increased temperatures (25° C., 45° C., 50° C. and 55° C. respectively). The samples were then centrifuged to separate the precipitate.
To carry out the experiment, a fusion protein was constructed comprising NFκB-BRD4(1)-ED. […] The samples were then exposed to several temperatures (25° C., 45° C., 50° C. and 55° C. respectively).

[1] = molecular target: T1, G9a protein methyltransferase (Homo sapiens, UniProt Q96KQ7); assay: Cell-free single-step denaturation EFC binding assay, ED-tagged G9a; conditions: single denaturation step of 3 minutes at 50° C.; signal increase from about 10^2 nM through 10^4 nM
T1 sequence (Q96KQ7 1-1210): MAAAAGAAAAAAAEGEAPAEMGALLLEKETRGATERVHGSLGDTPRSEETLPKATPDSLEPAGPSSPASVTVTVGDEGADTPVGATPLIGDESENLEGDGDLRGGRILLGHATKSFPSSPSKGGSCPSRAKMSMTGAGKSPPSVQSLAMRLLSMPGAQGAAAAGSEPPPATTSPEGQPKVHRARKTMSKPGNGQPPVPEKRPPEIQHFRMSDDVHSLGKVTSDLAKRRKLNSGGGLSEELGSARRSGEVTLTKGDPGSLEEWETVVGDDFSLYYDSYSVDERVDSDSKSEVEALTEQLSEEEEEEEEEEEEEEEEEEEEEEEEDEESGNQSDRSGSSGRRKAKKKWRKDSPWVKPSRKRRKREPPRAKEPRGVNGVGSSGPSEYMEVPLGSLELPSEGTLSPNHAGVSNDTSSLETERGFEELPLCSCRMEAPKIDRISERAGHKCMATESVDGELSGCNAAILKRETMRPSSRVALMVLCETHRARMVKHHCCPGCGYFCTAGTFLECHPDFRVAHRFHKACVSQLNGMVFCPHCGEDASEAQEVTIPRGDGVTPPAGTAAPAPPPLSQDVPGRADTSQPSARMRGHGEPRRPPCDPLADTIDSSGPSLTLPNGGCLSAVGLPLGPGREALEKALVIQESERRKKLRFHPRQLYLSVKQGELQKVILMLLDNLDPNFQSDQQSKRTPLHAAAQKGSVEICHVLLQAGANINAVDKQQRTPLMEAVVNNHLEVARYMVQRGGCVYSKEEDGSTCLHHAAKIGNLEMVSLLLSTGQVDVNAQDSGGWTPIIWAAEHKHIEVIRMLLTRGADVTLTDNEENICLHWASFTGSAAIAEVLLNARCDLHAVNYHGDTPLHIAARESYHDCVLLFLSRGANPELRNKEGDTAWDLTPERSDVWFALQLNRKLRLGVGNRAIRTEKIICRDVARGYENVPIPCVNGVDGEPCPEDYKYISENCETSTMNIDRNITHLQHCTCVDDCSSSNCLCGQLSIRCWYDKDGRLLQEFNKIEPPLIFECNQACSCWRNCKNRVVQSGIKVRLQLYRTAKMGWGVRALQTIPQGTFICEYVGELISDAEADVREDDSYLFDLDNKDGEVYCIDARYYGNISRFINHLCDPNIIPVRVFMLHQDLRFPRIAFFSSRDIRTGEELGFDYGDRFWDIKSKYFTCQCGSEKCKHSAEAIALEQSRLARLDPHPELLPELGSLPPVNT
Method: (§1) Data were fitted with the Hill Equation and EC50s were calculated.
This proof of concept G9a study was performed using a single denaturation step of 3 minutes at 50° C.

H3K9me2 = conditions: Vedadi et al., Nature Chemical Biology 2011; read-out: Published cell potency for reducing H3K9me2: IC50; cited from earlier work
G9a catalytic domain = molecular target: T2, G9a catalytic domain (Homo sapiens, UniProt Q96KQ7); assay: In-cell pulse thermal denaturation EFC assay, G9a methyltransferase in HEK293 cells; type: cell-based; conditions: 3 hour incubation at 37° C.; single 3 minute denaturation step at 48° C.
T2 sequence (Q96KQ7 1-1210): T1 sequence (Q96KQ7 1-1210)
Method: The G9a catalytic domain is expressed with a C-terminal PL tag. A 3 hour incubation with inhibitor at 37° C. is followed by a single 3 minute denaturation step at 48° C.

MTH1 [2] = molecular target: T3, MTH1 (Homo sapiens, UniProt P36639); conditions: read-out: Published MTH1 potency: In vitro EC50; cited from earlier work
MTH1 [3] = molecular target: T3, MTH1; conditions: read-out: Published MTH1 potency: Cellular IC50; cited from earlier work
[4] = molecular target: MTH1 hydrolase catalytic domain (Homo sapiens, UniProt P36639); assay: In-cell pulse thermal denaturation EFC assay, MTH1 hydrolase in HEK293 cells; type: cell-based; conditions: 3 hours with inhibitor at 37° C.; for EC50: preliminary protocol
ABL1 protein kinase = molecular target: T4, ABL1 protein kinase (Homo sapiens, UniProt P00519); type: binding; conditions: seven inhibitors; 30 cycles of 7 seconds at 42° C. / 60 seconds at 25° C.
T4 construct: made in house; host or cells: cell extract
T4 sequence (P00519 whole entry): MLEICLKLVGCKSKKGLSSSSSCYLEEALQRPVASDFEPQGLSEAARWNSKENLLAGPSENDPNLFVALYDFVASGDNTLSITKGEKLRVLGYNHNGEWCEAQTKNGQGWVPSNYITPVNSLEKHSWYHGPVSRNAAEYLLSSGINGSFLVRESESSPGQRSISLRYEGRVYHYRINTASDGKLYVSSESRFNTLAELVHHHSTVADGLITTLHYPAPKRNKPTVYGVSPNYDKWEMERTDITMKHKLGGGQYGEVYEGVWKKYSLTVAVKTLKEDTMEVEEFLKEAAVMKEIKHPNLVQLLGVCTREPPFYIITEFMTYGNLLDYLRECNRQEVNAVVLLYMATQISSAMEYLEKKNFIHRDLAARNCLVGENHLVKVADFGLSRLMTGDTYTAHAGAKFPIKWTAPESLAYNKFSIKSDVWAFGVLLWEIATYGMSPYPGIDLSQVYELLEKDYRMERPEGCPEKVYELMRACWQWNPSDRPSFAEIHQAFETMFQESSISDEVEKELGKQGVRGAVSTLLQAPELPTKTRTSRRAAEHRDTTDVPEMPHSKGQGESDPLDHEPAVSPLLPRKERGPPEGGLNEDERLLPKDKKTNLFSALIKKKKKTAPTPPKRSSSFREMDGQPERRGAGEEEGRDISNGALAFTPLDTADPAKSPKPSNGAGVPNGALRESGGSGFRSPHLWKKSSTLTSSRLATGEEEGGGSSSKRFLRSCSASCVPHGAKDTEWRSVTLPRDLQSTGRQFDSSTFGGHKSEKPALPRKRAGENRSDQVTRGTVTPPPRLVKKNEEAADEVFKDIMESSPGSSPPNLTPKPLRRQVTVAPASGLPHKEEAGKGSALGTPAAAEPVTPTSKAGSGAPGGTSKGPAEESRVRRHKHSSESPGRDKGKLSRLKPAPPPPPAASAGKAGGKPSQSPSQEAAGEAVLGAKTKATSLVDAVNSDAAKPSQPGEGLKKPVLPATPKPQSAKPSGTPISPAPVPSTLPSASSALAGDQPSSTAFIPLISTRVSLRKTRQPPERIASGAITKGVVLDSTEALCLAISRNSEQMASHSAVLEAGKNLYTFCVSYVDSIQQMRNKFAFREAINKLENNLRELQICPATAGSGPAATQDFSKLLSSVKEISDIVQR
Method: as §1
EC50 dose response curves for the seven inhibitors shown on the graph (inhibitor name labels and corresponding curves are in the same left to right order) were measured against ED-tagged ABL1.

## Cc1sc2c(c1C)C(c1ccc(Cl)cc1)=N[C@@H](CC(=O)OC(C)(C)C)c1nnc(C)n1-2 [JQ1, (6S)-4-(4-Chlorophenyl)-2,3,9-trimethyl-6H-thieno[3,2-f][1,2,4]triazolo[4,3-a][1,4]diazepine-6-acetic acid, 1,1-dimethylethyl ester]
BRD4(1) bromodomain
  Assay Window: 3.5 +/− 0.14
c-Myc expression
  IC50: ~100 nM
BRD4(1)
  Rescue of BRD4(1) fusion protein from heat denaturation, dose response: rescue the fusion protein from denaturation in a dose-dependent manner

## COc1cc2c(NC3CCN(C(C)C)CC3)nc(C3CCCCC3)nc2cc1OCCCN1CCCC1 [UNC0538, 2-Cyclohexyl-6-methoxy-N-[1-(1-methylethyl)-4-piperidinyl]-7-[3-(1-pyrrolidinyl)propoxy]-4-quinazolinamine]
[1]
  Protection against denaturation of G9a, dose response: increases in a dose-dependent manner
H3K9me2
  IC50: ~81 nM
G9a catalytic domain
  Assay Window: 5.0

## COc1ccc2nc3c(c(C)nn3C)c(NCCOCCO)c2c1 [SCH 51344]
MTH1 [2]
  EC50: 50 nM
MTH1 [3]
  IC50: < 20000 nM
[4]; denaturation 45° C./1.5 min.
  Assay Window: 1.9
  EC50: 370 nM
[4]; denaturation 48° C./3.0 min.
  Assay Window: 9.7
  EC50: 4600 nM

## CC(C)[C@H](CO)Nc1nc(Nc2ccc(C(=O)O)c(Cl)c2)c2ncn(C(C)C)c2n1 [purvalanol B]
ABL1 protein kinase
  Affinity rank order for ABL1 from dose response curves: lowest affinity
